Results reported in patent US10888520B2, “Coated particle and method for producing coated particle” (KOBE GAKUIN EDUCATIONAL FOUNDATION, priority 2010, dated 2021).

Test: Elution test, JP XV paddle method
Assay type: physicochemical
Conditions: paddle 100 rpm, 900 ml pure water, 37° C.
Protocol: The coating particles obtained in Examples 1 to 3 and the acetaminophen bulk powder were subjected to an elution test.
The elution test was carried out under the conditions of the number of revolutions of paddle: 100 rpm, 900 ml pure water and 37° C., in accordance with JP XV paddle method. Elution concentration of acetaminophen was obtained from an absorbance (285 nm).

elution concentration of acetaminophen (after 0.5 minute): 90% | elution concentration of acetaminophen (after (about) 1 minute): 100%
SMILES: CC(=O)Nc1ccc(O)cc1 [acetaminophen bulk powder, acetaminophen]
